Measurements taken from the supplement of paper PMC11061612.

How the values were obtained:
Test in all cases: Bliss excess, mean over the matrix (fraction); higher = more synergy
[1] = test system: NCCIT (Other Solid Carcinomas)
Outline: (§1)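 Bliss excess equals the observed combination effect minus the expected value EA + EB − EA·EB, where EA and EB are the effects of each agent alone. Combination Emax is the second-highest inhibition within the matrix. Inhibition was scaled from CellTiter-Glo 2.0 luminescence, with 0 set by vehicle wells and 1 by blank wells, after 72 hours of two-drug dosing of cells plated in 1536-well plates.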

[2] = test system: MN-60 (B-Lymphoblastic Leukemia)
Outline: as §1

[3] = test system: KYSE-270 (Esophageal Squamous Cell Carcinoma)
Outline: as §1

[4] = test system: COR-L279 (Small Cell Lung Carcinoma)
Outline: as §1

[5] = test system: H9 (T-Cell Non-Hodgkin's Lymphoma)
Outline: as §1

[6] = test system: MOLM-13 (Acute Myeloid Leukemia)
Outline: as §1

RD (Rhabdomyosarcoma) = test system: RD (Rhabdomyosarcoma)
Outline: as §1

[7] = test system: SK-GT-4 (Esophageal Adenocarcinoma)
Outline: as §1

[8] = test system: DMS-114 (Small Cell Lung Carcinoma)
Outline: as §1

[9] = test system: VMRC-RCZ (Kidney Carcinoma)
Outline: as §1

[10] = test system: JHH-4 (Hepatocellular Carcinoma)
Outline: as §1

[11] = test system: SU-DHL-5 (B-Cell Non-Hodgkin's Lymphoma)
Outline: as §1

M059J (Glioblastoma) = test system: M059J (Glioblastoma)
Outline: as §1

[12] = test system: T-T (Esophageal Squamous Cell Carcinoma)
Outline: as §1

SJSA-1 (Osteosarcoma) = test system: SJSA-1 (Osteosarcoma)
Outline: as §1

[13] = test system: DAN-G (Pancreatic Carcinoma)
Outline: as §1

[14] = test system: KU812 (Chronic Myelogenous Leukemia)
Outline: as §1

[15] = test system: RPMI-8226 (Plasma Cell Myeloma)
Outline: as §1

[16] = test system: MOG-G-CCM (Low Grade Glioma)
Outline: as §1

[17] = test system: HCC1419 (Breast Carcinoma)
Outline: as §1

SMILES	Bliss excess [1]	Bliss excess [2]	Bliss excess [3]	Bliss excess [4]	Bliss excess [5]	Bliss excess [6]	Bliss excess (RD (Rhabdomyosarcoma))	Bliss excess [7]	Bliss excess [8]	Bliss excess [9]	Bliss excess [10]	Bliss excess [11]	Bliss excess (M059J (Glioblastoma))	Bliss excess [12]	Bliss excess (SJSA-1 (Osteosarcoma))	Bliss excess [13]	Bliss excess [14]	Bliss excess [15]	Bliss excess [16]	Bliss excess [17]
Cc1c2c(nn1C)CSCc1cc(n(C)n1)CSc1cc(c3ccccc3c1)OCCCc1c(C(=O)O)n(C)c3c-2c(Cl)ccc13 [AZD5991] + Cn1cnc2c(F)c(Nc3ccc(Br)cc3Cl)c(C(=O)NOCCO)cc21 [Selumetinib] (first compound max 1 µM, 7x7, partner max 3 µM)	0.0003	-0.0125	0.0409	-0.0172	0.0145	0.0409	0.039	-0.0385	-0.0317	-0.0777	0.0244	0.0221	-0.102	0.0289	-0.0733	0.0588	0.0224	0.0045	-0.0241	0.0366
C[C@@H]1COCCN1c1cc(C2([S@](C)(=N)=O)CC2)nc(-c2ccnc3[nH]ccc23)n1 [AZD6738] + O=C(c1cc(Cc2n[nH]c(=O)c3ccccc23)ccc1F)N1CCN(C(=O)C2CC2)CC1 [Olaparib] (first compound max 10 µM, 7x7, partner max 10 µM)	0.0227	-0.042	-0.013	0.0042	0.0058	-0.0526	0.0312	-0.046	0.0254	0.0181	-0.0325	0.002	0.0113	-0.0237	-0.0371	-0.0051	-0.0429	-0.0189	0.0005	-0.0175
Cc1cc2ncnn2cc1Nc1ncc2c(n1)n(C1CCOCC1)c(=O)n2C [AZD7648] + C=CCn1c(=O)c2cnc(Nc3ccc(N4CCN(C)CC4)cc3)nc2n1-c1cccc(C(C)(C)O)n1 [AZD1775] (first compound max 10 µM, partner max 1 µM)	0.0237	-0.0316	0.0028	-0.0595	0.0346	-0.0255	-0.0168	-0.0515	-0.0151	0.0117	0.04	0.105	-0.0821	0.002	-0.024	-0.0686	0.0177	0.0062	-0.0309	-0.0156
Cc1cc2ncnn2cc1Nc1ncc2c(n1)n(C1CCOCC1)c(=O)n2C [AZD7648] + CCN(CCO)CCCOc1ccc2c(Nc3cc(CC(=O)Nc4cccc(F)c4)[nH]n3)ncnc2c1 [AZD2811] (first compound max 10 µM, 7x7, partner max 1 µM)	0.0781	-0.0061	0.0332	-0.0803	-0.0378	-0.0314	-0.0243	-0.0041	0.0309	0.0038	0.0136	-0.0094	-0.0551	0.0089	0.0601	0.0271	0.0578	0.0363	0.0246	-0.0264
Cc1cc2ncnn2cc1Nc1ncc2c(n1)n(C1CCOCC1)c(=O)n2C [AZD7648] + CN(C)CCCOc1ccc(-c2ccc3ncc4c(c3c2)n(C2CCOCC2)c(=O)n4C)cn1 [AZD0156] (first compound max 10 µM, 7x7, partner max 1 µM)	-0.0105	-0.0405	-0.0004	-0.0044	0.0458	0.0085	-0.0142	-0.0406	-0.0268	-0.0314	0.0025	0.0272	0.0149	0.0269	-0.0385	-0.0168	0.0197	0.0171	-0.0609	-0.0515
Cc1cc2ncnn2cc1Nc1ncc2c(n1)n(C1CCOCC1)c(=O)n2C [AZD7648] + C[C@@H]1COCCN1C2=NC(=NC(=C2)C3(CC3)[S@](=N)(=O)C)C4=C5C=CNC5=NC=C4 [AZD6738] (first compound max 10 µM, 7x7, partner max 10 µM)	0.0116	-0.0135	0.0008	0.0253	-0.0034	0.0003	0.0425	0.0068	-0.0072	0.0115	0.013	0.0007	0.0282	0.0146	0.0225	-0.0093	0.0087	-0.0744	-0.062	-0.0221
Cc1cc2ncnn2cc1Nc1ncc2c(n1)n(C1CCOCC1)c(=O)n2C [AZD7648] + O=C(c1cc(Cc2n[nH]c(=O)c3ccccc23)ccc1F)N1CCN(C(=O)C2CC2)CC1 [Olaparib] (first compound max 10 µM, 7x7, partner max 10 µM)	-0.0112	-0.0115	-0.034	-0.0256	-0.0049	-0.134	-0.0508	-0.0258	-0.0092	-0.0546	-0.0213	0.0091	-0.097	-0.0642	-0.036	-0.0568	-0.0425	-0.038	-0.0269	-0.066
